# Measurements: article PMC2724708, “Adenosine Kinase of T. b. rhodesiense Identified as the Putative Target of 4-[5-(4-phenoxyphenyl)-2H-pyrazol-3-yl]morpholine Using Chemical Proteomics” (PLoS Neglected Tropical Diseases, 2009)
# Biological target: T1, adenosine kinase of T. b. rhodesiense (TbrAK) (Trypanosoma brucei rhodesiense, UniProt Q584S0)
# T1 sequence (Q584S0 1-345): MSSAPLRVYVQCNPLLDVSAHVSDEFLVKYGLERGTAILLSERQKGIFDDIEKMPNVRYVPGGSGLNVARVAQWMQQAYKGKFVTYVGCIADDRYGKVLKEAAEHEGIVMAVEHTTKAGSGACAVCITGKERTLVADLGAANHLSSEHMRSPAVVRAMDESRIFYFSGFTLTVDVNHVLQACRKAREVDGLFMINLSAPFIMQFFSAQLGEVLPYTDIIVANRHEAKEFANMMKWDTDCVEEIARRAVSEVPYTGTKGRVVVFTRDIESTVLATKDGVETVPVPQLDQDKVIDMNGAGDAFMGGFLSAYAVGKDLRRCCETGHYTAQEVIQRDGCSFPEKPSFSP
# Experiment: HPLC activity assay for TbrAK
# Type: biochemical
# Procedure: TbrAK catalyzes the ATP-dependent phosphorylation of the 5′-hydroxyl moiety of adenosine to form AMP and ADP. The activity assay was based on HPLC separation of substrate and products (adenosine, AMP, ADP, and ATP). The mobile phase consisted of 35 mM KH2PO4, 6 mM tetrabutylammonium hydrogensulfate, (pH 7.0, adjusted with KOH), 125 mM EDTA, and 1% (v/v) acetonitrile. The separation was performed isocratically at a flow-rate of 1.5 ml/min and monitored at 254 nm. The standard reaction in 75 µl total volume containing 0.5 mM ATP, 0.5 mM adenosine, 0.5 mM MgCl2, 1% DMSO in buffer E1 (20 mM Hepes, 150 mM NaCl, pH 7.0) was started with the addition of 2 µg TbrAK (final concentration 0.7 µM) and incubated at 37°C for 10 min while shaking vigorously (600 rpm). […] All reactions were stopped by adding 75 µl mobile phase. 50 µl of the sample volume were injected for analysis and the resulting ADP/ATP ratios were calculated and used as a measure of activity. For comparative reasons the activity recorded in absence of compound was set to 100%. The mean of three independent measurements are reported.
smiles,measurement,setting,value
"c1ccc(Oc2ccc(-c3cc(N4CCOCC4)[nH]n3)cc2)cc1 [compound 1, 4-[5-(4-phenoxyphenyl)-2H-pyrazol-3-yl]morpholine]",activity at 50 µM,"50 µM compound, 0.7 µM TbrAK, 10 min, 37°C, ADP/ATP ratio, read-out: TbrAK activity in presence of compound (% of activity without compound)",245 ± 3%
same,EC50,"0.5 mM ATP, 0.5 mM adenosine, 0.7 µM TbrAK, read-out: EC50 of TbrAK activation (HPLC assay)",38.9 ± 0.9 µM
same,fold induction at 50 µM,"10 min, pH 7, 50 µM compound, read-out: fold increase of TbrAK activity",2.5
same,concentration dependence of the activation effect,"range 1–750 µM, up to solubility limit",concentration dependent
